Results as given in patent US20250101038A1, “COMPOUNDS” (priority 2021, published 2025).

Molecular target: T1, 5-HT2B receptor (Homo sapiens, UniProt P41595)
T1 construct: host or cells: CHO-K1
Experiment: cell-based
Conditions: agonist activity, Ca2+ flux, CHO-K1 cells

T1 sequence (P41595 whole entry): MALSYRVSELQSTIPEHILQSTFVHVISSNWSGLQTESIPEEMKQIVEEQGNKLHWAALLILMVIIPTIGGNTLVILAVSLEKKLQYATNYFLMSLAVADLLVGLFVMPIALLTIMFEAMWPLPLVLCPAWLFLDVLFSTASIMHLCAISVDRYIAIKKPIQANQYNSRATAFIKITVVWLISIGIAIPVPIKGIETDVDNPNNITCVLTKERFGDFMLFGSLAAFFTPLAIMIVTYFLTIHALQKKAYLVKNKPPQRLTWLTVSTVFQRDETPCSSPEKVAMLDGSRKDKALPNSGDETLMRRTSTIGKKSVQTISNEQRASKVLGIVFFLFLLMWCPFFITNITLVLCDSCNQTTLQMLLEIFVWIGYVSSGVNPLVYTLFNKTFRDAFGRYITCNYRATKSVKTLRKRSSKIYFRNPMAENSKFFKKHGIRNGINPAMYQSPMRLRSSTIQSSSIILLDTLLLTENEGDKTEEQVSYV

Row | SMILES | Emax
1 | CCN(C)CCc1c[nH]c2ccc(OC)c(C)c12 [Example P-37, N-ethyl-2-(5-methoxy-4-methyl-1H-indol-3-yl)-N-methylethan-1-amine] | 30.9%
2 | CCN(C)CCc1c[nH]c2c(C)cc(OC)cc12 [Example P-51, N-ethyl-2-(5-methoxy-7-methyl-1H-indol-3-yl)-N-methylethan-1-amine] | 0.85%
